Reference: PMC8915595, “Revisiting the application of Immobilized Artificial Membrane (IAM) chromatography to estimate in vivo distribution properties of drug discovery compounds based on the model of marketed drugs” (ADMET & DMPK, 2020)
Where two headings read alike, the source gives them in different places.

Columns and labels:
[1] = molecular target: T1, human serum albumin (HSA) (Homo sapiens, UniProt P02768); experiment: Protein binding on chemically bonded HSA column (Chiralpak-HSA); details: remeasured in this study, pH 7.4
Experimental: Mobile phase A was 50 mM ammonium acetate adjusted to pH 7.4 and mobile phase B was 2-propanol. The flow rate was 1.5 mL/min and the run time was 6 min. The 2-propanol gradient was applied from 0 to 35% from 0 to 3.00 min and kept at 35% until 4.00 min.

[2] = molecular target: T1, human serum albumin (HSA); details: cited from earlier work
[3] = cited from earlier work; for CHI (IAM) from ref [13]: reference CHI (IAM), old columns
[4] = IAM chromatography on new IAM.PC.DD2 columns (gradient HPLC, CHI (IAM)); format: physicochemical; parameters: key to CHI (IAM) “new” / P20511-014-3 CHI (IAM): CHI (IAM) from retention times calibrated to predefined CHI standards; details: for P20511-014-3 CHI (IAM): new IAM.PC.DD2 column batch P20511-014-3, pH 7.4; for R20511-014-3 CHI (IAM): new IAM.PC.DD2 column batch R20511-014-3, pH 7.4; for CHI (IAM) deviation between reference and new IAM.PC.DD2 columns / CHI (IAM) “new”: system suitability test compounds; for CHI (IAM) “new”: new IAM.PC.DD2 columns, pH 7.4; for outlier in correlation of reference CHI (IAM) with CHI (IAM) on column R20511-014-3: lower CHI (IAM) on new batches, outlier if difference greater than 7.2 CHI IAM units
Experimental: The IAM binding was measured using IAM.PC.DD2 HPLC columns (Regis Technologies, Inc., IL, USA) with dimensions of 100 x 4.6 mm, particle size 10 μm with 300 Å pore size.
Two batches of IAM.PC.DD2 columns were studied (R20511-014-3 and P20511-014-3) that had been prepared using the new batches of silica support.
The retention times were standardized using the IAM calibration mixture, containing octanophenone, heptanophenone, hexanophenone, valerophenone, butyrophenone, propiophenone, acetophenone, acetanilide and paracetamol. The retention times of the compounds were plotted against the isocratically determined and predefined CHI (IAM) values listed in Table 1. The slope and intercept of the obtained straight line was used to calculate the CHI IAM values of new compounds.

[5] = human

T1 sequence (P02768 25-609): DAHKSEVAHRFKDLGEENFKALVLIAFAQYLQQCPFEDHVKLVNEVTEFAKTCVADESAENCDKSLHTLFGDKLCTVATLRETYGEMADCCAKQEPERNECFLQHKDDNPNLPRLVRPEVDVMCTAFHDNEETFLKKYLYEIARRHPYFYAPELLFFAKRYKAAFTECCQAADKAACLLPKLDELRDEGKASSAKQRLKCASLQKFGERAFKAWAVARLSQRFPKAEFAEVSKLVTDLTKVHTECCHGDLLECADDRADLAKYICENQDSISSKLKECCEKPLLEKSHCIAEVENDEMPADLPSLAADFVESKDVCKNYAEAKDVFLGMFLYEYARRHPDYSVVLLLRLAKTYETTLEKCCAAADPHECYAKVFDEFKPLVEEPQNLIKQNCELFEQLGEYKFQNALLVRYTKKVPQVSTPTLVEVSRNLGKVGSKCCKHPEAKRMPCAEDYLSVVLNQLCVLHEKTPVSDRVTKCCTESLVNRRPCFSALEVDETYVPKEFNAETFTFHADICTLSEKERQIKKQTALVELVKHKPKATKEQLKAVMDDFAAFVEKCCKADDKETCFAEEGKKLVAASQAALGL

Row | Structure (SMILES) | log K HSA [1] | log K HSA from ref [13] [2] | CHI (IAM) from ref [13] [3] | P20511-014-3 CHI (IAM) [4] | R20511-014-3 CHI (IAM) [4] | CHI (IAM) ([3]; system suitability test compounds, CHI (IAM) reference from the literature) | CHI (IAM) deviation between reference and new IAM.PC.DD2 columns [4] | CHI (IAM) “new” [4] | reference log Vdss [5] | CHI (IAM) ([3]; previously published, IAM column manufactured 2004-2012) | outlier in correlation of reference CHI (IAM) with CHI (IAM) on column R20511-014-3 [4]
1 | CCN(CC)CCNC(=O)c1ccc(NC(C)=O)cc1 [Acecainide] | 0.52 | 0.69 | 23.30 | 17.57 | 17.72 | – | – | – | – | – | –
2 | Clc1ccc2c(c1)C(N1CCNCC1)=Nc1ccccc1O2 [Amoxapine] | 2.70 | 2.15 | 56.50 | 44.74 | 45.41 | – | – | – | – | – | –
3 | CCCCNCC(O)c1ccc(O)cc1 (stereo not drawn) [Bamethan] | 0.42 | – | – | 18.03 | 18.53 | – | – | – | – | – | –
4 | C[C@H]1C[C@H]2[C@@H]3CCC4=CC(=O)C=C[C@]4(C)[C@@]3(F)[C@@H](O)C[C@]2(C)[C@@]1(O)C(=O)CO [Betamethasone] | – | – | 31.70 | 30.05 | 30.18 | – | – | – | – | – | –
5 | CCCC1O[C@@H]2C[C@H]3[C@@H]4CCC5=CC(=O)C=C[C@]5(C)[C@H]4[C@@H](O)C[C@]3(C)[C@]2(C(=O)CO)O1 (stereo partly drawn) [Budesonide] | – | – | – | – | – | 38.7 | very similar | 38 | – | – | –
6 | COc1cc2c(c(OC)c1OC)-c1ccc(OC)c(=O)cc1[C@@H](NC(C)=O)CC2 [Colchicine] | – | – | 23.70 | 23.18 | 23.45 | – | – | 23.0 | – | – | –
7 | O=C(O)Cc1ccccc1Nc1c(Cl)cccc1Cl [Diclofenac] | – | – | 33.50 | 35.85 | 35.18 | – | – | – | -0.67 | – | –
8 | Cn1c(=O)c2c(ncn2CC(O)CO)n(C)c1=O (stereo not drawn) [Diprophylline] | 4.24 | 4.1 | -4.00 | -1.98 | -1.49 | – | – | – | – | – | –
9 | NC(=O)OCC(COC(N)=O)c1ccccc1 [Felbamate] | 4.15 | 3.46 | 19.07 | 39.21 | 39.16 | – | – | – | – | – | –
10 | CCOC(=O)C1=C(C)NC(C)=C(C(=O)OC)C1c1cccc(Cl)c1Cl (stereo not drawn) [Felodipine] | – | – | 46.10 | 44.45 | 44.37 | – | – | – | – | – | –
11 | CCOC(=O)c1ncn2c1CN(C)C(=O)c1cc(F)ccc1-2 [Flumazenil] | – | – | 18.40 | 18.27 | 18.27 | – | – | – | – | – | –
12 | O=C(CCCN1CCC(O)(c2ccc(Cl)cc2)CC1)c1ccc(F)cc1 [Haloperidol] | – | – | – | – | – | – | very similar | 48 | – | – | –
13 | C[C@]12CCC(=O)C=C1CC[C@@H]1[C@@H]2[C@@H](O)C[C@@]2(C)[C@H]1CC[C@]2(O)C(=O)CO [Hydrocortisone] | 2.59 | – | 27.90 | 27.02 | 27.23 | – | – | – | – | – | –
14 | CN(C)CCCN1c2ccccc2CCc2ccccc21 [Imipramine] | 5.59 | – | 51.60 | 44.81 | 45.58 | – | > 5 CHI (IAM) unit | 45.0 | – | – | –
15 | CC(=O)N1CCN(c2ccc(OCC3COC(Cn4ccnc4)(c4ccc(Cl)cc4Cl)O3)cc2)CC1 (stereo not drawn) [Ketoconazole] | – | – | 42.90 | 39.26 | 39.50 | – | – | – | – | – | –
16 | CC(C(=O)O)c1cccc(C(=O)c2ccccc2)c1 (stereo not drawn) [Ketoprofen] | – | – | 21.90 | 23.89 | 22.93 | – | very similar | 20.0 | – | 21.9 | –

Row | Structure (SMILES) | log K HSA [1] | log K HSA from ref [13] [2] | CHI (IAM) from ref [13] [3] | P20511-014-3 CHI (IAM) [4] | R20511-014-3 CHI (IAM) [4] | CHI (IAM) ([3]; system suitability test compounds, CHI (IAM) reference from the literature) | CHI (IAM) deviation between reference and new IAM.PC.DD2 columns [4] | CHI (IAM) “new” [4] | reference log Vdss [5] | CHI (IAM) ([3]; previously published, IAM column manufactured 2004-2012) | outlier in correlation of reference CHI (IAM) with CHI (IAM) on column R20511-014-3 [4]
17 | CC(CCc1ccccc1)NCC(O)c1ccc(O)c(C(N)=O)c1 (stereo not drawn) [Labetalol] | – | – | 43.90 | 37.48 | 38.29 | – | – | – | – | – | –
18 | COc1ccc2cc(CCC(C)=O)ccc2c1 [Nabumetone] | 2.14 | 0.49 | 38.40 | 35.96 | 35.90 | – | – | – | – | – | –
19 | COc1ccc(Cc2nccc3cc(OC)c(OC)cc23)cc1OC [Papaverine] | 0.39 | – | 34.40 | 31.15 | 31.22 | – | – | – | – | – | –
20 | OCCN1CCN(CCCN2c3ccccc3Sc3ccc(Cl)cc32)CC1 [Perphenazine] | 2.02 | 1.6 | 56.30 | 48.97 | 49.57 | – | – | – | – | – | –
21 | COc1cc2nc(N3CCN(C(=O)c4ccco4)CC3)nc(N)c2cc1OC [Prazosin] | – | – | 31.60 | 29.35 | 29.82 | – | – | – | – | – | –
22 | C[C@]12C=CC(=O)C=C1CC[C@@H]1[C@@H]2[C@@H](O)C[C@@]2(C)[C@H]1CC[C@]2(O)C(=O)CO [Prednisolone] | – | – | 28.00 | 27.20 | 27.31 | – | – | – | – | – | –
23 | CCN(CC)CCNC(=O)c1ccc(N)cc1 [Procainamide] | 1.67 | 0.73 | – | 11.89 | 11.73 | – | – | – | – | – | outliers
24 | CC(C)NCC(O)COc1cccc2ccccc12 (stereo not drawn) [Propranolol] | 1.02 | – | 50.80 | 41.46 | 42.24 | – | – | 42.0 | – | – | –
25 | CCCc1cc(=O)[nH]c(=S)[nH]1 [Propylthiouracil] | 3.21 | 2.67 | – | – | – | – | – | – | – | – | –
26 | O=C1C(CC[S+]([O-])c2ccccc2)C(=O)N(c2ccccc2)N1c1ccccc1 (stereo not drawn) [Sulfinpyrazone] | 2.66 | 3.17 | 26.10 | 26.89 | 26.19 | – | – | – | – | – | –
27 | Cc1noc(NS(=O)(=O)c2ccc(N)cc2)c1C [Sulfisoxazole] | 3.68 | – | 2.90 | 7.37 | 6.48 | – | – | – | – | – | –
28 | CC/C(=C(\c1ccccc1)c1ccc(OCCN(C)C)cc1)c1ccccc1 [Tamoxifen] | 4.82 | 1.29 | – | – | – | – | – | – | – | – | –
29 | O=c1n(CCCN2CCN(c3cccc(Cl)c3)CC2)nc2ccccn12 [Trazodone] | 3.06 | 0.8 | 36.30 | 33.86 | 34.09 | – | – | – | – | – | –
30 | COc1cc(Cc2cnc(N)nc2N)cc(OC)c1OC [Trimethoprim] | 0.95 | 4.45 | 20.80 | 20.52 | 20.99 | – | – | – | – | – | –
31 | CC(=O)CC(c1ccccc1)c1c(O)c2ccccc2oc1=O (stereo not drawn) [Warfarin] | – | – | – | 24.18 | 23.47 | – | very similar | 24.0 | -0.78 | – | –
32 | CN(C)CCc1c[nH]c2ccc(C[C@H]3COC(=O)N3)cc12 [zolmitriptan] | – | – | – | – | – | – | – | – | – | – | outliers
